Strand notation (5' to 3'): a small letter for the sugar, then the base; units joined by * are phosphorothioate-linked, units joined directly phosphodiester-linked; [ ] holds rarer units or linkages, { } end groups; capitals alone tell only the bases. e = 2'-O-(2-methoxyethyl) (MOE); [5mC] = 5-methylcytosine; d = 2'-deoxy (DNA)
Test system: human Factor 7 mRNA
Assay: Antisense inhibition of human Factor 7 mRNA in HepB3 cells, 50 nM antisense oligonucleotide, lipofectin
Type: cell-based
Details: Table 6, 50 nM, lipofectin, approximately 24 hours
How it was run: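 Readout is percent reduction of Factor 7 message compared with untreated cells, after correction for total RNA content quantified by RIBOGREEN®. Cultures were seeded at 4,000 cells per well and treated for about 24 hours before RNA extraction.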

| Substance | % Inhibition |
| --- | --- |
| 422186 (antisense eG*eG*eA*dA*dG*dA*dA*dG*dG*dG*dA*d[5mC]*dG*dG*dA*dA*dG*eG*eT*eG) [compound 422186] | 14% |
| 422187 (antisense e[5mC]*eG*eG*dA*dA*dG*dA*dA*dG*dG*dG*dA*d[5mC]*dG*dG*dA*dA*eG*eG*eT) [compound 422187] | 28% |
| 422188 (antisense eG*e[5mC]*eG*dG*dA*dA*dG*dA*dA*dG*dG*dG*dA*d[5mC]*dG*dG*dA*eA*eG*eG) [compound 422188] | 37% |
| 422189 (antisense e[5mC]*eG*e[5mC]*dG*dG*dA*dA*dG*dA*dA*dG*dG*dG*dA*d[5mC]*dG*dG*eA*eA*eG) [compound 422189] | 0% |
| 422190 (antisense eG*e[5mC]*eG*d[5mC]*dG*dG*dA*dA*dG*dA*dA*dG*dG*dG*dA*d[5mC]*dG*eG*eA*eA) [compound 422190] | 12% |
| 422191 (antisense eA*eG*e[5mC]*dG*d[5mC]*dG*dG*dA*dA*dG*dA*dA*dG*dG*dG*dA*d[5mC]*eG*eG*eA) [compound 422191] | 27% |
| 422192 (antisense eG*eA*eG*d[5mC]*dG*d[5mC]*dG*dG*dA*dA*dG*dA*dA*dG*dG*dG*dA*e[5mC]*eG*eG) [compound 422192] | 27% |
| 422193 (antisense eT*eG*eA*dG*d[5mC]*dG*d[5mC]*dG*dG*dA*dA*dG*dA*dA*dG*dG*dG*eA*e[5mC]*eG) [compound 422193] | 6% |
| 422194 (antisense e[5mC]*eT*eG*dA*dG*d[5mC]*dG*d[5mC]*dG*dG*dA*dA*dG*dA*dA*dG*dG*eG*eA*e[5mC]) [compound 422194] | 11% |
| 422195 (antisense eA*e[5mC]*eT*dG*dA*dG*d[5mC]*dG*d[5mC]*dG*dG*dA*dA*dG*dA*dA*dG*eG*eG*eA) [compound 422195] | 37% |
| 422196 (antisense eT*eA*e[5mC]*dT*dG*dA*dG*d[5mC]*dG*d[5mC]*dG*dG*dA*dA*dG*dA*dA*eG*eG*eG) [compound 422196] | 2% |
| 422197 (antisense eT*eT*eA*d[5mC]*dT*dG*dA*dG*d[5mC]*dG*d[5mC]*dG*dG*dA*dA*dG*dA*eA*eG*eG) [compound 422197] | 26% |
| 422198 (antisense eG*eT*eT*dA*d[5mC]*dT*dG*dA*dG*d[5mC]*dG*d[5mC]*dG*dG*dA*dA*dG*eA*eA*eG) [compound 422198] | 50% |
| 422199 (antisense eG*eG*eT*dT*dA*d[5mC]*dT*dG*dA*dG*d[5mC]*dG*d[5mC]*dG*dG*dA*dA*eG*eA*eA) [compound 422199] | 65% |

Same assay, conditions: gapmers targeted to nucleobases 4868 to 4899 of SEQ ID NO: 1, Table 8

| Substance | % Inhibition of human Factor 7 mRNA levels |
| --- | --- |
| 422213 (antisense eT*e[5mC]*eT*dG*d[5mC]*dA*dG*dG*dA*dG*d[5mC]*dG*dG*d[5mC]*d[5mC]*dT*dA*eA*eA*eT) [compound 422213] | 67% |
| 422214 (antisense eT*eT*e[5mC]*dT*dG*d[5mC]*dA*dG*dG*dA*dG*d[5mC]*dG*dG*d[5mC]*d[5mC]*dT*eA*eA*eA) [compound 422214] | 60% |
| 422216 (antisense eA*eG*eT*dT*d[5mC]*dT*dG*d[5mC]*dA*dG*dG*dA*dG*d[5mC]*dG*dG*d[5mC]*e[5mC]*eT*eA) [compound 422216] | 68% |
| 422218 (antisense e[5mC]*eG*eA*dG*dT*dT*d[5mC]*dT*dG*d[5mC]*dA*dG*dG*dA*dG*d[5mC]*dG*eG*e[5mC]*e[5mC]) [compound 422218] | 70% |
| 422219 (antisense e[5mC]*e[5mC]*eG*dA*dG*dT*dT*d[5mC]*dT*dG*d[5mC]*dA*dG*dG*dA*dG*d[5mC]*eG*eG*e[5mC]) [compound 422219] | 65% |
| 422220 (antisense e[5mC]*e[5mC]*e[5mC]*dG*dA*dG*dT*dT*d[5mC]*dT*dG*d[5mC]*dA*dG*dG*dA*dG*e[5mC]*eG*eG) [compound 422220] | 59% |
| 422221 (antisense eG*e[5mC]*e[5mC]*d[5mC]*dG*dA*dG*dT*dT*d[5mC]*dT*dG*d[5mC]*dA*dG*dG*dA*eG*e[5mC]*eG) [compound 422221] | 59% |
| 422222 (antisense eA*eG*e[5mC]*d[5mC]*d[5mC]*dG*dA*dG*dT*dT*d[5mC]*dT*dG*d[5mC]*dA*dG*dG*eA*eG*e[5mC]) [compound 422222] | 55% |
| 422223 (antisense eG*eA*eG*d[5mC]*d[5mC]*d[5mC]*dG*dA*dG*dT*dT*d[5mC]*dT*dG*d[5mC]*dA*dG*eG*eA*eG) [compound 422223] | 48% |
| 422224 (antisense eG*eG*eA*dG*d[5mC]*d[5mC]*d[5mC]*dG*dA*dG*dT*dT*d[5mC]*dT*dG*d[5mC]*dA*eG*eG*eA) [compound 422224] | 62% |

Same assay, conditions: oligonucleotides targeted to nucleobases 13760 to 13789 of SEQ ID NO: 1 (Table 10)

| Substance | % Inhibition (human Factor 7 mRNA levels) |
| --- | --- |
| 422176 (antisense e[5mC]*e[5mC]*eG*d[5mC]*d[5mC]*dG*dG*d[5mC]*dT*d[5mC]*dT*dG*d[5mC]*dT*d[5mC]*dA*dT*e[5mC]*e[5mC]*e[5mC]) [compound 422176] | 52% |
| 422178 (antisense eA*e[5mC]*e[5mC]*d[5mC]*dG*d[5mC]*d[5mC]*dG*dG*d[5mC]*dT*d[5mC]*dT*dG*d[5mC]*dT*d[5mC]*eA*eT*e[5mC]) [compound 422178] | 37% |
| 422179 (antisense e[5mC]*eA*e[5mC]*d[5mC]*d[5mC]*dG*d[5mC]*d[5mC]*dG*dG*d[5mC]*dT*d[5mC]*dT*dG*d[5mC]*dT*e[5mC]*eA*eT) [compound 422179] | 43% |
| 422180 (antisense e[5mC]*e[5mC]*eA*d[5mC]*d[5mC]*d[5mC]*dG*d[5mC]*d[5mC]*dG*dG*d[5mC]*dT*d[5mC]*dT*dG*d[5mC]*eT*e[5mC]*eA) [compound 422180] | 54% |
| 422181 (antisense eG*e[5mC]*e[5mC]*dA*d[5mC]*d[5mC]*d[5mC]*dG*d[5mC]*d[5mC]*dG*dG*d[5mC]*dT*d[5mC]*dT*dG*e[5mC]*eT*e[5mC]) [compound 422181] | 66% |
| 422182 (antisense e[5mC]*eG*e[5mC]*d[5mC]*dA*d[5mC]*d[5mC]*d[5mC]*dG*d[5mC]*d[5mC]*dG*dG*d[5mC]*dT*d[5mC]*dT*eG*e[5mC]*eT) [compound 422182] | 11% |
| 422184 (antisense eT*eG*e[5mC]*dG*d[5mC]*d[5mC]*dA*d[5mC]*d[5mC]*d[5mC]*dG*d[5mC]*d[5mC]*dG*dG*d[5mC]*dT*e[5mC]*eT*eG) [compound 422184] | 55% |
| 422185 (antisense e[5mC]*eT*eG*d[5mC]*dG*d[5mC]*d[5mC]*dA*d[5mC]*d[5mC]*d[5mC]*dG*d[5mC]*d[5mC]*dG*dG*d[5mC]*eT*e[5mC]*eT) [compound 422185] | 48% |

Same assay, conditions: oligonucleotides targeted to nucleobases 14707 to 14732 of SEQ ID NO: 1 (Table 11)

| Substance | % Inhibition (human Factor 7 mRNA levels) |
| --- | --- |
| 422200 (antisense e[5mC]*e[5mC]*eT*dG*dA*dG*dG*d[5mC]*d[5mC]*dA*dG*d[5mC]*dA*dG*dA*dT*d[5mC]*eA*e[5mC]*eG) [compound 422200] | 58% |
| 422201 (antisense eG*e[5mC]*e[5mC]*dT*dG*dA*dG*dG*d[5mC]*d[5mC]*dA*dG*d[5mC]*dA*dG*dA*dT*e[5mC]*eA*e[5mC]) [compound 422201] | 71% |
| 422202 (antisense eA*eG*e[5mC]*d[5mC]*dT*dG*dA*dG*dG*d[5mC]*d[5mC]*dA*dG*d[5mC]*dA*dG*dA*eT*e[5mC]*eA) [compound 422202] | 49% |
| 422203 (antisense e[5mC]*eA*eG*d[5mC]*d[5mC]*dT*dG*dA*dG*dG*d[5mC]*d[5mC]*dA*dG*d[5mC]*dA*dG*eA*eT*e[5mC]) [compound 422203] | 52% |
| 422204 (antisense eG*e[5mC]*eA*dG*d[5mC]*d[5mC]*dT*dG*dA*dG*dG*d[5mC]*d[5mC]*dA*dG*d[5mC]*dA*eG*eA*eT) [compound 422204] | 72% |
| 422205 (antisense eA*eG*e[5mC]*dA*dG*d[5mC]*d[5mC]*dT*dG*dA*dG*dG*d[5mC]*d[5mC]*dA*dG*d[5mC]*eA*eG*eA) [compound 422205] | 63% |
| 422206 (antisense e[5mC]*eA*eG*d[5mC]*dA*dG*d[5mC]*d[5mC]*dT*dG*dA*dG*dG*d[5mC]*d[5mC]*dA*dG*e[5mC]*eA*eG) [compound 422206] | 65% |

Same assay, conditions: oligonucleotides targeted to nucleobases 15098 to 15122 of SEQ ID NO: 1 (Table 12)

| Substance | % Inhibition (human Factor 7 mRNA levels) |
| --- | --- |
| 422207 (antisense e[5mC]*eA*e[5mC]*dA*d[5mC]*dA*dT*dG*dG*dA*dG*dT*d[5mC]*dA*dG*d[5mC]*dA*eT*e[5mC]*eG) [compound 422207] | 41% |
| 422208 (antisense eG*e[5mC]*eA*d[5mC]*dA*d[5mC]*dA*dT*dG*dG*dA*dG*dT*d[5mC]*dA*dG*d[5mC]*eA*eT*e[5mC]) [compound 422208] | 56% |
| 422209 (antisense eA*eG*e[5mC]*dA*d[5mC]*dA*d[5mC]*dA*dT*dG*dG*dA*dG*dT*d[5mC]*dA*dG*e[5mC]*eA*eT) [compound 422209] | 47% |
| 422210 (antisense e[5mC]*eA*eG*d[5mC]*dA*d[5mC]*dA*d[5mC]*dA*dT*dG*dG*dA*dG*dT*d[5mC]*dA*eG*e[5mC]*eA) [compound 422210] | 25% |
| 422211 (antisense eA*e[5mC]*eA*dG*d[5mC]*dA*d[5mC]*dA*d[5mC]*dA*dT*dG*dG*dA*dG*dT*d[5mC]*eA*eG*e[5mC]) [compound 422211] | 42% |
| 422212 (antisense eG*eA*e[5mC]*dA*dG*d[5mC]*dA*d[5mC]*dA*d[5mC]*dA*dT*dG*dG*dA*dG*dT*e[5mC]*eA*eG) [compound 422212] | 30% |
